In patent US6387906B1, “2,4,4-trisubstituted-1,3-dioxolane antifungals” (priority 1997, dated 2002):

Tests used:
[1] = test system: Trichophyton rubrum; assay: Measurement of antifungal activity in vitro (lowest active dose) vs. Trichophyton rubrum; format: cell-based; details: lowest concentration inhibiting growth below 35% of control growth; CYG broth, 30° C. for 5-7 days, turbidimetry
Protocol: (§1) Test compounds were dissolved at a concentration of 10^−2 M in dimethyl sulfoxide (DMSO) and diluted into CYG broth (Odds, F. C. Antimicrobial Agents and Chemotherapy 1992; 36: 1727-1737) to give a final concentration of 25 μM and, in most tests, 5 μM. For some compounds the tests were done at 100, 10, 1.0 and 0.1 μM. Cultures were inoculated with Candida.kefyr to an initial concentration of 10^4/ml and with Trichophyton rubrum to an equivalent concentration determined by turbidimetry. Cultures were incubated in the wells of microdilution plates at 37° C. for 48 h (C. kefyr) and at 30° C. for 5-7 days (T. rubrum). Growth in wells containing test compounds was estimated turbidimetrically as a percentage of growth in compound-free controls and the lowest concentration of compound that inhibited the growth of an isolate below 35% of control growth was recorded as the lowest active dose (LAD).

[2] = test system: Candida kefyr; assay: Measurement of antifungal activity in vitro (lowest active dose) vs. Candida kefyr; format: cell-based; details: lowest concentration inhibiting growth below 35% of control growth; CYG broth, 37° C. for 48 h, turbidimetry
Protocol: as §1

SMILES	LAD (μM) vs. T. rubrum [1]	LAD (μM) vs. C. keyr [2]
CCCN1CCN(c2ccc(N3CCN(c4ccc(OCC5OCC(Cn6ccnc6)(c6ccc(Cl)cc6)O5)cc4)CC3)cc2)C1=O (racemic) [Compound 4]	≦5 μM	≦5 μM
CCCN1C(=O)N(c2ccc(N3CCN(c4ccc(OCC5OCC(Cn6ccnc6)(c6ccc(Cl)cc6)O5)cc4)CC3)cc2)CC1(C)C (racemic) [Compound 5]	≦5 μM	≦25 μM
CCCN1C(=O)N(c2ccc(N3CCN(c4ccc(OC[C@@H]5OC[C@@](Cn6cncn6)(c6ccc(Cl)cc6)O5)cc4)CC3)cc2)CC1(C)C (racemic) [Compound 9]	≦25 μM	≦25 μM
CCCN1C(=O)N(c2ccc(N3CCN(c4ccc(OC[C@@H]5OC[C@@](Cn6ccnc6)(c6ccc(F)cc6)O5)cc4)CC3)cc2)CC1(C)C (racemic) [Compound 12]	≦5 μM	≦25 μM
CCCN1C(=O)N(c2ccc(N3CCN(c4ccc(OC[C@@H]5OC[C@@](Cn6cncn6)(c6ccc(F)cc6)O5)cc4)CC3)cc2)CC1(C)C (racemic) [Compound 13]	≦5 μM	≦5 μM
CCN1C(=O)N(c2ccc(N3CCN(c4ccc(OC[C@@H]5OC[C@@](Cn6cncn6)(c6ccc(F)cc6F)O5)cc4)CC3)cc2)C(C)(C)C1=O (racemic) [Compound 19]	≦25 μM	≦5 μM
CCC1C(=O)N(c2ccc(N3CCN(c4ccc(OC[C@@H]5OC[C@@](Cn6cncn6)(c6ccc(F)cc6F)O5)cc4)CC3)cc2)C(=O)N1CC (mixture of isomers) [Compound 20]	>25 µM	≦5 μM
CC(C)N1CCN(c2ccc(N3CCN(c4ccc(OC[C@@H]5OC[C@@](Cn6ccnc6)(c6ccc(F)cc6)O5)cc4)CC3)cc2)C1=O (racemic) [Compound 23]	≦5 μM	≦5 μM
CCN1CCN(c2ccc(N3CCN(c4ccc(OC[C@@H]5OC[C@@](Cn6ccnc6)(c6ccc(F)cc6)O5)cc4)CC3)cc2)C1=O (racemic) [Compound 24]	≦5 μM	≦25 μM
CCCN1CCN(c2ccc(N3CCN(c4ccc(OC[C@@H]5OC[C@@](Cn6ccnc6)(c6ccc(F)cc6)O5)cc4)CC3)cc2)C1=O (racemic) [Compound 25]	≦5 μM	≦5 μM
CCCCN1CCN(c2ccc(N3CCN(c4ccc(OC[C@@H]5OC[C@@](Cn6ccnc6)(c6ccc(F)cc6)O5)cc4)CC3)cc2)C1=O (racemic) [Compound 26]	≦5 μM	≦25 μM
CCN1CCN(c2ccc(N3CCN(c4ccc(OC[C@@H]5OC[C@@](Cn6ccnc6)(c6ccc(Cl)cc6)O5)cc4)CC3)cc2)C1=O (racemic) [Compound 27]	≦5 μM	≦5 μM
CC(C)N1CCN(c2ccc(N3CCN(c4ccc(OC[C@@H]5OC[C@@](Cn6ccnc6)(c6ccc(Cl)cc6)O5)cc4)CC3)cc2)C1=O (racemic) [Compound 28]	≦5 μM	≦25 μM
CCCCN1CCN(c2ccc(N3CCN(c4ccc(OC[C@@H]5OC[C@@](Cn6ccnc6)(c6ccc(Cl)cc6)O5)cc4)CC3)cc2)C1=O (racemic) [Compound 29]	≦5 μM	≦25 μM
CCCN1CCN(c2ccc(N3CCN(c4ccc(OC[C@@H]5OC[C@@](Cn6ccnc6)(c6ccc(F)cc6F)O5)cc4)CC3)cc2)C1=O (racemic) [Compound 30]	≦5 μM	≦5 μM
CCN1CCN(c2ccc(N3CCN(c4ccc(OC[C@@H]5OC[C@@](Cn6ccnc6)(c6ccc(F)cc6F)O5)cc4)CC3)cc2)C1=O (racemic) [Compound 32]	≦5 μM	≦25 μM
CC(C)N1CCN(c2ccc(N3CCN(c4ccc(OC[C@@H]5OC[C@@](Cn6ccnc6)(c6ccc(F)cc6F)O5)cc4)CC3)cc2)C1=O (racemic) [Compound 34]	≦5 μM	≦5 μM
CCC(C)N1CCN(c2ccc(N3CCN(c4ccc(OC[C@@H]5OC[C@@](Cn6ccnc6)(c6ccc(F)cc6F)O5)cc4)CC3)cc2)C1=O (mixture of isomers) [Compound 35]	≦5 μM	≦25 μM
CC(C)N1CCN(c2ccc(N3CCN(c4ccc(OC[C@@H]5OC[C@@](Cn6cncn6)(c6ccc(F)cc6)O5)cc4)CC3)cc2)C1=O (racemic) [Compound 40]	≦5 μM	≦25 μM
CN1CCN(c2ccc(N3CCN(c4ccc(OC[C@@H]5OC[C@@](Cn6ccnc6)(c6ccc(F)cc6)O5)cc4)CC3)cc2)C1=O (racemic) [Compound 42]	≦5 μM	≦5 μM
CCC(CC)N1CCN(c2ccc(N3CCN(c4ccc(OC[C@@H]5OC[C@@](Cn6ccnc6)(c6ccc(F)cc6)O5)cc4)CC3)cc2)C1=O (racemic) [Compound 44]	≦5 μM	≦5 μM
CCC(C)N1CCN(c2ccc(N3CCN(c4ccc(OC[C@@H]5OC[C@@](Cn6cncn6)(c6ccc(F)cc6F)O5)cc4)CC3)cc2)C1=O (relative stereo) [Compound 21, cis-1-[4-[4-[4-[[4-(2,4-difluorophenyl)-4-(1H-1,2,4-triazol-1-ylmethyl)-1,3-dioxolan-2-yl]methoxy]phenyl]-1-piperazinyl]phenyl]-3-(1-methylpropyl)-2-imidazolidinone]	≦0.1 μM	≦0.1 μM
CCCn1c(=O)n(CC)c(=O)n(-c2ccc(N3CCN(c4ccc(OC[C@H]5OC[C@](Cn6cncn6)(c6ccc(F)cc6F)O5)cc4)CC3)cc2)c1=O (relative stereo) [Compound 47, (2S-cis)-1-ethyl-3-[4-[4-[4-[[4-(2,4-difluorophenyl)-4-(1H-1,2,4-triazol-1-ylmethyl)-1,3-dioxolan-2-yl]methoxy]-phenyl]-1-piperazinyl]phenyl]-5-propyl-1,3,5-triazine-2,4,6(1H,3H,5H)-trione]	1 µM	>100 µM
CCN1C(=O)N(c2ccc(N3CCN(c4ccc(OC[C@@H]5OC[C@@](Cn6cncn6)(c6ccc(F)cc6F)O5)cc4)CC3)cc2)C(=O)C(C)(C)C1=O (relative stereo) [Compound 48, (2R-cis)-1-ethyl-3-[4-[4-[4-[[4-(2,4-diflurorophenyl)-4-(1H-1,2,4-triazol-1-ylmethyl)-1,3-dioxolan-2-yl]methoxy]phenyl]-1-piperazinyl]phenyl]-5,5-dimethyl-2,4,6(1H,3H,5H)-pyrimidinetrione]	>100 µM	10 µM
